Measurements taken from ChEMBL document CHEMBL1201862, “PubChem BioAssay data set” (2004).
Activity calls are given as the source filed them.

Columns and labels:
[1] = NIH-3T3 fibroblast cytotoxicity, dose response, cytotoxicity control, cell-based, fluorescence, Alamar Blue, secondary assay (AID 2327); format: functional;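 also: NIH-3T3 mouse fibroblasts cultured with fluconazole at 8 µg/mL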
[2] = test system: Streptococcus sp. 'group A'; experiment: Streptococcus pyogenes SK(-)GAS viability under kanamycin – luminescence, BacTiterGlo, confirmation, counter-screen for streptokinase expression inhibitor project, dose response (AID 1900); format: functional, organism-based
Streptokinase A = target: T1, Streptokinase A (Streptococcus pyogenes serotype M1, UniProt P10520); experiment: viability-normalized secreted streptokinase activity reduction – plasminogen activation absorbance, OD405, dose response (AID 1914); format: functional, Streptococcus pyogenes M1 GAS;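 also: secreted streptokinase activity via plasminogen activation per viability signal from cell pellet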
T1 sequence (P10520 whole entry): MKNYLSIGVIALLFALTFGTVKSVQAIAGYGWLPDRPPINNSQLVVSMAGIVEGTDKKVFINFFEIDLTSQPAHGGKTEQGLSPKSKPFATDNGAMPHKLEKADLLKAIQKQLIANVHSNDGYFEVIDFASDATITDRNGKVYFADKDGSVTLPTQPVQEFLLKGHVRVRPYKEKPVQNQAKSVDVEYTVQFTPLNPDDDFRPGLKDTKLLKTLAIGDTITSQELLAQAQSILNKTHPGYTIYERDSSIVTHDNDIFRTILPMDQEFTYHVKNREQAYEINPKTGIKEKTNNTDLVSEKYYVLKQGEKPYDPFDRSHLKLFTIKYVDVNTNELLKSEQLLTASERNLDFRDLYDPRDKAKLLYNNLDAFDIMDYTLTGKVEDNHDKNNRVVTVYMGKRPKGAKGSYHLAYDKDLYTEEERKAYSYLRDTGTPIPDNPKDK

[3] = fluconazole-exposed Candida albicans growth modulators – fluorescence, retest, confirmation (AID 2467); format: functional, cell-based
Streptococcus = experiment: GAS UMAA2166 growth inhibition – luminescence, BacTiterGlo, counter-screen for streptokinase expression inhibitor project, dose response (AID 1915); format: functional, organism-based;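 also: potency for reduction of bacterial viability or growth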
Cysteine protease ATG4B = target: T2, Cysteine protease ATG4B (Homo sapiens, UniProt Q9Y4P1); format: functional;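 also: Fluorescence-based dose-response confirmation assay measuring inhibition of ATG4B activity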
T2 sequence (Q9Y4P1 whole entry): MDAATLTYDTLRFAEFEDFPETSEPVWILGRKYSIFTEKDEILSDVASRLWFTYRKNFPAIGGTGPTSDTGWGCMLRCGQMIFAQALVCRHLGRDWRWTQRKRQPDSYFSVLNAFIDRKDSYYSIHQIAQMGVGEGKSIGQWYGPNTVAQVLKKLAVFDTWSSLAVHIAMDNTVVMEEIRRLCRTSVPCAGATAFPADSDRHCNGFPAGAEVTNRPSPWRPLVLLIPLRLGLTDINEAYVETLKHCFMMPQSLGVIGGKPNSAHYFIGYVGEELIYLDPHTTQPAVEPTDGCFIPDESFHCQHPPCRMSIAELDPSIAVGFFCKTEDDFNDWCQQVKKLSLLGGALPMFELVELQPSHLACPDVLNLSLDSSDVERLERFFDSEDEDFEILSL

Phospholipase A2 = Phospholipase A2 (Homo sapiens, UniProt P04054); format: functional;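 also: confirmatory dose-response counterscreen on phospholipase A2, testing hits that came from an ultra-high-throughput screen for ATG4B inhibitors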
[4] = target: T3, High affinity choline transporter 1 (Homo sapiens, UniProt Q9GZV3); experiment: human choline transporter blockers, potency – cell-based, 5-point CRC, membrane potential dye, dose response (AID 504840); format: functional
T3 sequence (Q9GZV3 whole entry): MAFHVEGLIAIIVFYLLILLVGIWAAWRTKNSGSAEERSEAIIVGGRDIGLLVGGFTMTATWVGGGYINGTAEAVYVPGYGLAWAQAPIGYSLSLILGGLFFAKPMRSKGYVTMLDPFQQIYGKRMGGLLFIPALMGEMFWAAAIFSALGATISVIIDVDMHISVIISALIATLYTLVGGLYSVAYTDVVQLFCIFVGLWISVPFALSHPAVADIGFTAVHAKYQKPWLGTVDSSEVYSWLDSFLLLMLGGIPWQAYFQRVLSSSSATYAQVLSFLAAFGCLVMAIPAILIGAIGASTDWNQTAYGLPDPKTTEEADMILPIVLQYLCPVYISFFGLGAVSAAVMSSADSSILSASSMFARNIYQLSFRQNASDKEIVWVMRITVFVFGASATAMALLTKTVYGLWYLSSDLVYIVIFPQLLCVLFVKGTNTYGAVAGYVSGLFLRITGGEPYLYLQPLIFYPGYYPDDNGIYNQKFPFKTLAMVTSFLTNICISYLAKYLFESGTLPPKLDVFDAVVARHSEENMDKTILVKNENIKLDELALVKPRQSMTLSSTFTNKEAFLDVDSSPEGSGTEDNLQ

[5] = target: T3, High affinity choline transporter 1; experiment: human choline transporter blockers, potency – cell-based, 10-point CRC, membrane potential dye, dose response (AID 588401); format: functional;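 also: membrane potential dye fluorescence of choline-evoked depolarization via CHT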
[6] = target: T4, Endoribonuclease toxin MazF (Escherichia coli K-12, UniProt P0AE70); experiment: activation of MazEF endoribonuclease cleavage – biochemical, fluorescence, single-stranded RNA substrate, uHTS hits, dose response (AID 588481); format: functional
T4 sequence (P0AE70 whole entry): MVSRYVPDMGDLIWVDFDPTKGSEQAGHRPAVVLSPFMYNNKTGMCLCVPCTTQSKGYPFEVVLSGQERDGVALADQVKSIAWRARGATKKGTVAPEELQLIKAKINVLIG

[7] = target: T4, Endoribonuclease toxin MazF; experiment: substrate-only fluorescence increase artefacts – biochemical, single-stranded RNase substrate, counter-screen for MazEF activator project, dose response (AID 588502); format: functional
[8] = target: T5, Zinc finger protein mex-5 (Caenorhabditis elegans, UniProt Q9XUB2); experiment: potency of MEX-5 RNA-binding blockers – biochemical, C. elegans, fluorescence polarization, dose response (AID 1960)
T5 sequence (Q9XUB2 whole entry): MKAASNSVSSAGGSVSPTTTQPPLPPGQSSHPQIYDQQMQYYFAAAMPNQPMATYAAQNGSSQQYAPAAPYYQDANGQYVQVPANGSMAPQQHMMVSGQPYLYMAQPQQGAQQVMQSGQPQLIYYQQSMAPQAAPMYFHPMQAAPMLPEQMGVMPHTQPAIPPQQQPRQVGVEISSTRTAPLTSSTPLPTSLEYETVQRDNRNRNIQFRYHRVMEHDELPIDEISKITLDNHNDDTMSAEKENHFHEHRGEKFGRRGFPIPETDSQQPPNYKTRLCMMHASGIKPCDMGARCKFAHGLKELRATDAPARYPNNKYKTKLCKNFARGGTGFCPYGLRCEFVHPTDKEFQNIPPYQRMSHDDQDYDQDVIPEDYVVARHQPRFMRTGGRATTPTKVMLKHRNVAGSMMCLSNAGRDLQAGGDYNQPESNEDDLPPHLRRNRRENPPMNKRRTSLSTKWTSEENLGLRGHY

Large T antigen = Large T antigen (Simian virus 40, UniProt P03070); format: functional, Betapolyomavirus macacae;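 also: Confirmatory-stage PubChem screen for compounds that inhibit SV40 T antigen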
[9] = target: Heat shock protein HSP 90-alpha (Homo sapiens, UniProt P07900); format: functional, organism-based
Genome polyprotein = Genome polyprotein (dengue virus type 2, UniProt P29990); experiment: flavivirus cap methylation enzyme inhibition – biochemical, confirmation dose response, primary screen (AID 588689); format: functional
Prothrombin = Prothrombin (Homo sapiens, UniProt P00734); experiment: Thrombin 1536 HTS Dose Response Confirmation. [Related pubchem assays: 1046 (Thrombin 1536 HTS; hits were confirmed in this assay)]; format: functional
[10] = target: T6, Corticotropin-releasing factor receptor 2/Corticotropin-releasing factor-binding protein (Homo sapiens, UniProt P24387+Q13324); experiment: activators of CRF receptor 2 with binding protein – uHTS hits, confirmation (AID 602473); format: functional; settings: read-out: EC50_Mean
T6 sequence (Q13324 whole entry): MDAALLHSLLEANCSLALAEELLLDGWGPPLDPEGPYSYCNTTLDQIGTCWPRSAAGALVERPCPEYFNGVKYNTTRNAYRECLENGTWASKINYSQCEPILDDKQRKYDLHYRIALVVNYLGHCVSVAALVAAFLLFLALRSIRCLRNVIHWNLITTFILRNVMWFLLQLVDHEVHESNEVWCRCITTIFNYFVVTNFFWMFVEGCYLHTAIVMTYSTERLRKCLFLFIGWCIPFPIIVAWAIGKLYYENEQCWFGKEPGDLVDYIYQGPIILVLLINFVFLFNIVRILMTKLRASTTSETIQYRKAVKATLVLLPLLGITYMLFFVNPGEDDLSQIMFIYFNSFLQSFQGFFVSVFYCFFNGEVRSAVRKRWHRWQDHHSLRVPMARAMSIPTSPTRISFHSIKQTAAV
T6 sequence (P24387 whole entry): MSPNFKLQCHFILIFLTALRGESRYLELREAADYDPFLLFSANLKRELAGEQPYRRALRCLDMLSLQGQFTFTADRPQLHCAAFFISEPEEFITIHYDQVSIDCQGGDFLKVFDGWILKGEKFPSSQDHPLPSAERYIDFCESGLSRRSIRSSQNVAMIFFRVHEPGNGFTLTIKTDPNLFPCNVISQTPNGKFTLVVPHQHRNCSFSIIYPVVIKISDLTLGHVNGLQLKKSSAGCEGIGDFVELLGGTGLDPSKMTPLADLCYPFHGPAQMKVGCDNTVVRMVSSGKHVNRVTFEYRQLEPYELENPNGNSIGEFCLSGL

Sequence of Phospholipase A2 (P04054 whole entry): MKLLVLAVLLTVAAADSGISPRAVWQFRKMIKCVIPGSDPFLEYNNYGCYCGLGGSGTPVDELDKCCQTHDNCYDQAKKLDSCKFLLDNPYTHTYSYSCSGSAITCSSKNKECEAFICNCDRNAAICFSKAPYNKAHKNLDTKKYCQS
Sequence of Genome polyprotein (P29990 2492-3391 limits assumed): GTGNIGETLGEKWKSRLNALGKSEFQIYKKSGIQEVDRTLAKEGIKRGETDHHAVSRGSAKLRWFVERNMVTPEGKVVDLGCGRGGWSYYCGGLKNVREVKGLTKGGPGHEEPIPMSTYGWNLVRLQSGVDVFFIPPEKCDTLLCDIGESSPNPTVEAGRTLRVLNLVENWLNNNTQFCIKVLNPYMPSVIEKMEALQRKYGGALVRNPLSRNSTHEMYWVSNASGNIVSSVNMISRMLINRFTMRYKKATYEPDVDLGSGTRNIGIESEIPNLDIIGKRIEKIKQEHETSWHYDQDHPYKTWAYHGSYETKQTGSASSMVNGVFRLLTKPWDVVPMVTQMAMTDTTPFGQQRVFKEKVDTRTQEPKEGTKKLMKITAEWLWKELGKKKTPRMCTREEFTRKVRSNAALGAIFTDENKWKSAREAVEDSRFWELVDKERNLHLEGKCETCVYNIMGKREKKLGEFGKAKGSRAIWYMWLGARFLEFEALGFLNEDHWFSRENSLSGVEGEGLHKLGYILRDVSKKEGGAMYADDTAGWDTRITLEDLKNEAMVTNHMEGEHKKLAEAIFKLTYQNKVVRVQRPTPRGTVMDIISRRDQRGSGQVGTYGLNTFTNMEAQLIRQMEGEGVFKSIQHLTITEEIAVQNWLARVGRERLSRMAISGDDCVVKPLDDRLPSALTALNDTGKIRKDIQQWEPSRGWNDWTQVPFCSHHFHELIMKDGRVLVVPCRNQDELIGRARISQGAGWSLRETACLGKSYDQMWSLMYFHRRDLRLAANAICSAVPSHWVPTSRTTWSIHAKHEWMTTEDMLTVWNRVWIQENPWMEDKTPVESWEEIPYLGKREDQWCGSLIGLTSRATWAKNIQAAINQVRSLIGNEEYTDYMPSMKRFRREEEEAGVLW
Sequence of Large T antigen (P03070 whole entry): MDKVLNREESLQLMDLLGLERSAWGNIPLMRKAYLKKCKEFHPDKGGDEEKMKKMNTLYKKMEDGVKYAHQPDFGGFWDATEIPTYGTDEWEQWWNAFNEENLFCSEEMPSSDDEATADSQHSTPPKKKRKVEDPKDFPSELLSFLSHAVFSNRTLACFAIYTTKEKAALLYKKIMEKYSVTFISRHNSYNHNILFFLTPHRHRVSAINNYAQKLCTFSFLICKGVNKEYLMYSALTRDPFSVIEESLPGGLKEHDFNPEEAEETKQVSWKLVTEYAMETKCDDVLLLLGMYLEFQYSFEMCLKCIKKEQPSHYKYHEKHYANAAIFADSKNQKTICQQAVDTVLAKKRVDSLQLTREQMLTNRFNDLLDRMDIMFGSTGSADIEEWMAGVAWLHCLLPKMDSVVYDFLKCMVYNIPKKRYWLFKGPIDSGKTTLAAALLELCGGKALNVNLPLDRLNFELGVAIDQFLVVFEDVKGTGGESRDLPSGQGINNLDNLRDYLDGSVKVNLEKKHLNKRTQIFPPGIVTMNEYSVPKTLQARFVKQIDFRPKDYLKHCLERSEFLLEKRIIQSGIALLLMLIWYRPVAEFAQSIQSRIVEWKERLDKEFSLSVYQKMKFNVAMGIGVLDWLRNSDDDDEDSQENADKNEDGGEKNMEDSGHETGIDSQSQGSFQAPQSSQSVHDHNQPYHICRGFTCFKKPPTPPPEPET

SMILES	EC50 [2]	EC50 (Streptokinase A)	EC50 (Streptococcus)	IC50 (Cysteine protease ATG4B)	IC50 (Phospholipase A2)	IC50 [4]	EC50 [6]	EC50 [7]	other results
Nc1ncc(Br)cc1S(=O)(=O)Nc1cc(C(F)(F)F)cc(C(F)(F)F)c1	6.6 µM (active)	3.32 µM (active)	19.9 µM (active)	8.94 µM (active)	8.69 µM (active)	9.12 µM (active)			EC50 [1]: 18.2 µM (active); EC50 [3]: 0.341 µM (active); IC50 [5]: 4.01 µM (active)
Nc1nonc1-n1nnc(C(=O)N/N=C/c2ccc3c(c2)OCO3)c1CSc1ccccc1							> 99 µM (inactive)	> 99 µM (inactive)	
Oc1c(Br)cc(Br)c(/C=N/n2c(S)nnc2-c2ccccc2)c1Br				7.7 µM (active)	36.8 µM (inactive)	13.2 µM (active)			EC50 [8]: 5.63 µM (active); IC50 (Large T antigen): 28.2 µM (active); AC50 [9]: 8.53 µM (active); IC50 (Genome polyprotein): 17.9 µM (active)
O=C(O)c1cc([N+](=O)[O-])ccc1NCc1ccccc1Cl				11.9 µM (active)	9.55 µM (active)				IC50 (Prothrombin): > 50 µM (not active)
CCC(CC)C1=NN2C(=N)/C(=C\c3cc(C)n(-c4cccc(C)c4)c3C)C(=O)N=C2S1	7.3 µM (active)	> 150 µM (not active)	17.8 µM (active)	15.7 µM (active)	0.975 µM (active)				EC50 [10]: 6.03 µM (active)
CC(=O)Nc1cccc(C(=O)/C=C/c2ccc(N(C)C)cc2)c1							> 99 µM (inactive)	> 99 µM (inactive)	
